Experimental data taken from patent publication US8067408B2, “Dual pharmacophores—PDE4-muscarinic antagonistics” (priority 2008, dated 2011).
Structures can show the parent of a compound that is named as a salt.

With CCc1nc2c(cnn2CC)c(NC2CCOCC2)c1CNC(=O)c1cccc(C(=O)NCc2ccc(OC)c(-c3cccc(CN4C[C@@H]5C[C@H]4CN5)c3)c2)c1 [Example 194, N-{[3′-[(1S,4S)-2,5-Diazabicyclo [2.2.1]hept-2-ylmethyl]-6-(methyloxy)-3-biphenylyl]methyl}-N′-{[1,6-diethyl-4-(tetrahydro-2H-pyran-4-ylamino)-1H-pyrazolo[3,4-b]pyridin-5-yl]methyl}-1,3-benzenedicarboxamide] the melting point was 129 to 131 °C. For CCc1nc2c(cnn2CC)c(NC2CCOCC2)c1CNC(=O)c1cccc(C(=O)NCc2ccc(F)c(-c3cccc(CN4CCNC(=O)C4)c3)c2)c1 [Example 201, N-{[1,6-Diethyl-4-(tetrahydro-2H-pyran-4-ylamino)-1H-pyrazolo[3,4-b]pyridin-5-yl]methyl}-N′-({6-fluoro-3′-[(3-oxo-1-piperazinyl)methyl]-3-biphenylyl}methyl)-1,3-benzenedicarboxamide], the melting point was 147 to 150 °C. CCc1nc2c(cnn2CC)c(NC2CCOCC2)c1CNC(=O)c1cccc(C(=O)NCc2ccc(F)c(-c3cccc(CN(C)CCN(C)C)c3)c2)c1 [Example 206, N-{[1,6-Diethyl-4-(tetrahydro-2H-pyran-4-ylamino)-1H-pyrazolo[3,4-b]pyridin-5-yl]methyl}-N′-[(3′-{[[2-(dimethylamino)-ethyl](methyl)amino]methyl}-6-fluoro-3-biphenylyl)methyl]-1,3-benzenedicarboxamide] showed a melting point of 126 to 129 °C. Work on CCc1nc2c(cnn2CC)c(NC2CCOCC2)c1CNC(=O)c1cccc(C(=O)NCc2ccc(Cl)c(-c3cccc(CN4CCN[C@@H](C)C4)c3)c2)c1 [Example 215, N-[(6-Chloro-3′-{[(3S)-3-methyl-1-piperazinyl]methyl}-3-biphenylyl)methyl]-N′-{[1,6-diethyl-4-(tetrahydro-2H-pyran-4-ylamino)-1H-pyrazolo[3,4-b]pyridin-5-yl]methyl}-1,3-benzenedicarboxamide] yielded a melting point of 116 to 118 °C. With CCc1nc2c(cnn2CC)c(NC2CCOCC2)c1CNC(=O)c1cccc(C(=O)NCc2cc(Cl)cc(-c3cccc(CN4CCCN(C)CC4)c3)c2)c1 [Example 428, N-({5-Chloro-3′-[(4-methylhexahydro-1H-1,4-diazepin-1-yl)methyl]-3-biphenylyl}methyl)-N′-{[1,6-diethyl-4-(tetrahydro-2H-pyran-4-ylamino)-1H-pyrazolo[3,4-b]pyridin-5-yl]methyl}-1,3-benzenedicarboxamide] the melting point was 111 to 113 °C. Work on CCc1nc2c(cnn2CC)c(NC2CCOCC2)c1CNC(=O)c1cccc(C(=O)NCc2ccc(F)c(-c3cccc(CN4CCCNCC4)c3)c2)c1 [Example 204, N-{[1,6-Diethyl-4-(tetrahydro-2H-pyran-4-ylamino)-1H-pyrazolo[3,4-b]pyridin-5-yl]methyl}-N′-{[6-fluoro-3′-(hexahydro-1H-1,4-diazepin-1-ylmethyl)-3-biphenylyl]methyl}-1,3-benzenedicarboxamide] yielded a melting point of 145 to 148 °C. Work on CCc1nc2c(cnn2CC)c(NC2CCOCC2)c1CNC(=O)c1cc(C)cc(C(=O)NCc2ccc(OC)c(-c3cccc(C=O)c3)c2)c1 yielded a melting point of 117 to 119 °C. Compound CCc1nc2c(cnn2CC)c(NC2CCOCC2)c1CNC(=O)c1cccc(C(=O)NCc2ccc(Cl)c(-c3cccc(CN4CCN[C@@H](C)C4)c3)c2)c1 [Example 214, N-[(6-Chloro-3′-{[(3S)-3-methyl-1-piperazinyl]methyl}-3-biphenylyl)methyl]-N′-{[1,6-diethyl-4-(tetrahydro-2H-pyran-4-ylamino)-1H-pyrazolo[3,4-b]pyridin-5-yl]methyl}-1,3-benzenedicarboxamide] has a melting point of 117 to 120 °C. Compound CCc1nc2c(cnn2CC)c(NC2CCOCC2)c1CNC(=O)c1cccc(C(=O)NCc2cc(Cl)cc(-c3cccc(CN4CCCNCC4)c3)c2)c1 [Example 430, N-{[5-Chloro-3′-(hexahydro-1H-1,4-diazepin-1-ylmethyl)-3-biphenylyl]methyl}-N′-{[1,6-diethyl-4-(tetrahydro-2H-pyran-4-ylamino)-1H-pyrazolo[3,4-b]pyridin-5-yl]methyl}-1,3-benzenedicarboxamide] has a melting point of 121 to 124 °C. For CCc1nc2c(cnn2CC)c(NC2CCOCC2)c1CNC(=O)c1cccc(C(=O)NCc2ccc(C)c(-c3cccc(CN4CCNCC4)c3)c2)c1 [Example 192, N-{[1,6-Diethyl-4-(tetrahydro-2H-pyran-4-ylamino)-1H-pyrazolo[3,4-b]pyridin-5-yl]methyl}-N′-{[6-methyl-3′-(1-piperazinylmethyl)-3-biphenylyl]methyl}-1,3-benzenedicarboxamide], the melting point was 135 to 138 °C. In the case of CCc1nc2c(cnn2CC)c(NC2CCOCC2)c1CNC(=O)c1cccc(C(=O)NCc2ccc(Cl)c(-c3cccc(CN4CCN(C)CC4)c3)c2)c1 [Example 219, N-({6-Chloro-3′-[(4-methyl-1-piperazinyl)methyl]-3-biphenylyl}methyl)-N′-{[1,6-diethyl-4-(tetrahydro-2H-pyran-4-ylamino)-1H-pyrazolo[3,4-b]pyridin-5-yl]methyl}-1,3-benzenedicarboxamide], the melting point is reported as 112 to 114 °C. CCc1nc2c(cnn2CC)c(NC2CCOCC2)c1CNC(=O)c1cccc(C(=O)NCc2ccc(Cl)c(-c3cccc(CN4C[C@@H]5C[C@H]4CN5)c3)c2)c1 [Example 223, N-({6-Chloro-3′-[(1S,4S)-2,5-diazabicyclo [2.2.1]hept-2-ylmethyl]-3-biphenylyl}methyl)-N′-{[1,6-diethyl-4-(tetrahydro-2H-pyran-4-ylamino)-1H-pyrazolo[3,4-b]pyridin-5-yl]methyl}-1,3-benzenedicarboxamide] showed a melting point of 145 to 149 °C. Work on CCc1nc2c(cnn2CC)c(NC2CCOCC2)c1CNC(=O)c1cccc(C(=O)NCc2ccc(Cl)c(-c3cccc(CN4CCCN(C)CC4)c3)c2)c1 [Example 218, N-({6-Chloro-3′-[(4-methylhexahydro-1H-1,4-diazepin-1-yl)methyl]-3-biphenylyl}methyl)-N′-{[1,6-diethyl-4-(tetrahydro-2H-pyran-4-ylamino)-1H-pyrazolo[3,4-b]pyridin-5-yl]methyl}-1,3-benzenedicarboxamide] yielded a melting point of 105 to 107 °C. CCc1nc2c(cnn2CC)c(NC2CCOCC2)c1CNC(=O)c1cccc(C(=O)NCc2cc(Cl)cc(-c3cccc(CN4C[C@@H](C)N[C@@H](C)C4)c3)c2)c1 [Example 429, N-[(5-Chloro-3′-{[(3R,5S)-3,5-dimethyl-1-piperazinyl]methyl}-3-biphenylyl)methyl]-N′-{[1,6-diethyl-4-(tetrahydro-2H-pyran-4-ylamino)-1H-pyrazolo[3,4-b]pyridin-5-yl]methyl}-1,3-benzenedicarboxamide] gave a melting point of 112 to 114 °C. For CCc1nc2c(cnn2CC)c(NC2CCOCC2)c1CNC(=O)c1cc(C)cc(C(=O)NCc2ccc(C)c(Br)c2)c1, the melting point was 117 to 119 °C. With CCc1nc2c(cnn2CC)c(NC2CCOCC2)c1CNC(=O)c1cc(C)cc(C(=O)NCc2ccc(F)c(-c3cccc(C=O)c3)c2)c1 the melting point was 107 to 110 °C. Work on CCc1nc2c(cnn2CC)c(NC2CCOCC2)c1CNC(=O)c1cccc(C(=O)NCc2ccc(F)c(-c3cccc(CN4CCN[C@@H](C)C4)c3)c2)c1 (as salt: TFA) [Example 205, N-{[1,6-Diethyl-4-(tetrahydro-2H-pyran-4-ylamino)-1H-pyrazolo[3,4-b]pyridin-5-yl]methyl}-N′-[(6-fluoro-3′-{[(3S)-3-methyl-1-piperazinyl]methyl}-3-biphenylyl)methyl]-1,3-benzenedicarboxamide] yielded a melting point of 100 to 113 °C. Work on CCc1nc2c(cnn2CC)c(NC2CCOCC2)c1CNC(=O)c1cc(C)cc(C(=O)NCc2cccc(-c3cccc(C=O)c3)c2)c1 yielded a melting point of 109 to 112 °C. CCc1nc2c(cnn2CC)c(NC2CCOCC2)c1CNC(=O)c1cc(C)cc(C(=O)NCc2cccc(-c3cccc(CC4CCNCC4)c3)c2)c1 [Example 426, N-{[1,6-Diethyl-4-(tetrahydro-2H-pyran-4-ylamino)-1H-pyrazolo[3,4-b]pyridin-5-yl]methyl}-5-methyl-N′-{[3′-(4-piperidinylmethyl)-3-biphenylyl]methyl}-1,3-benzenedicarboxamide] showed a melting point of 130 to 132 °C. In the case of CCc1nc2c(cnn2CC)c(NC2CCOCC2)c1CNC(=O)c1cccc(C(=O)NCc2ccc(OC)c(-c3cccc(CN4C[C@@H](C)N[C@@H](C)C4)c3)c2)c1 [Example 210, N-{[1,6-Diethyl-4-(tetrahydro-2H-pyran-4-ylamino)-1H-pyrazolo[3,4-b]pyridin-5-yl]methyl}-N′-{[3′-{[(3R,5S)-3,5-dimethyl-1-piperazinyl]methyl}-6-(methyloxy)-3-biphenylyl]methyl}-1,3-benzenedicarboxamide], the melting point is reported as 127 to 129 °C. CCc1nc2c(cnn2CC)c(NC2CCOCC2)c1CNC(=O)c1cccc(C(=O)NCc2ccc(OC)c(-c3cccc(CN4CCN[C@@H](C)C4)c3)c2)c1 [Example 213, N-{[1,6-Diethyl-4-(tetrahydro-2H-pyran-4-ylamino)-1H-pyrazolo[3,4-b]pyridin-5-yl]methyl}-N′-[(6-(methyloxy)-3′-{[(3S)-3-methyl-1-piperazinyl]methyl}-3-biphenylyl)methyl]-1,3-benzenedicarboxamide] gave a melting point of 110 to 112 °C. For CCc1nc2c(cnn2CC)c(NC2CCOCC2)c1CNC(=O)c1cccc(C(=O)NCc2ccc(Cl)c(-c3cccc(CN4CCNCC4)c3)c2)c1 [Example 222, N-{[6-Chloro-3′-(1-piperazinylmethyl)-3-biphenylyl]methyl}-N′-{[1,6-diethyl-4-(tetrahydro-2H-pyran-4-ylamino)-1H-pyrazolo[3,4-b]pyridin-5-yl]methyl}-1,3-benzenedicarboxamide], the melting point was 127 to 130 °C. Work on CCc1nc2c(cnn2CC)c(NC2CCOCC2)c1CNC(=O)c1cc(C)cc(C(=O)NCc2ccc(Cl)c(Br)c2)c1 yielded a melting point of 212 to 214 °C. CCc1nc2c(cnn2CC)c(NC2CCOCC2)c1CNC(=O)c1cccc(C(=O)NCc2ccc(C)c(-c3cccc(CN4CCN[C@@H](C)C4)c3)c2)c1 [Example 212, N-{[1,6-Diethyl-4-(tetrahydro-2H-pyran-4-ylamino)-1H-pyrazolo[3,4-b]pyridin-5-yl]methyl}-N′-[(6-methyl-3′-{[(3S)-3-methyl-1-piperazinyl]methyl}-3-biphenylyl)methyl]-1,3-benzenedicarboxamide] showed a melting point of 115 to 118 °C.
